The results in this text go back to patent US7598245B2 (Vertex Pharmaceuticals Incorporated, priority 2003, dated 2009).

One experiment concerns the target T1, FLT-3 (Homo sapiens, UniProt P36888).
T1 construct: 0.02% BSA and 3 nM FLT-3
T1 sequence (P36888 27-993): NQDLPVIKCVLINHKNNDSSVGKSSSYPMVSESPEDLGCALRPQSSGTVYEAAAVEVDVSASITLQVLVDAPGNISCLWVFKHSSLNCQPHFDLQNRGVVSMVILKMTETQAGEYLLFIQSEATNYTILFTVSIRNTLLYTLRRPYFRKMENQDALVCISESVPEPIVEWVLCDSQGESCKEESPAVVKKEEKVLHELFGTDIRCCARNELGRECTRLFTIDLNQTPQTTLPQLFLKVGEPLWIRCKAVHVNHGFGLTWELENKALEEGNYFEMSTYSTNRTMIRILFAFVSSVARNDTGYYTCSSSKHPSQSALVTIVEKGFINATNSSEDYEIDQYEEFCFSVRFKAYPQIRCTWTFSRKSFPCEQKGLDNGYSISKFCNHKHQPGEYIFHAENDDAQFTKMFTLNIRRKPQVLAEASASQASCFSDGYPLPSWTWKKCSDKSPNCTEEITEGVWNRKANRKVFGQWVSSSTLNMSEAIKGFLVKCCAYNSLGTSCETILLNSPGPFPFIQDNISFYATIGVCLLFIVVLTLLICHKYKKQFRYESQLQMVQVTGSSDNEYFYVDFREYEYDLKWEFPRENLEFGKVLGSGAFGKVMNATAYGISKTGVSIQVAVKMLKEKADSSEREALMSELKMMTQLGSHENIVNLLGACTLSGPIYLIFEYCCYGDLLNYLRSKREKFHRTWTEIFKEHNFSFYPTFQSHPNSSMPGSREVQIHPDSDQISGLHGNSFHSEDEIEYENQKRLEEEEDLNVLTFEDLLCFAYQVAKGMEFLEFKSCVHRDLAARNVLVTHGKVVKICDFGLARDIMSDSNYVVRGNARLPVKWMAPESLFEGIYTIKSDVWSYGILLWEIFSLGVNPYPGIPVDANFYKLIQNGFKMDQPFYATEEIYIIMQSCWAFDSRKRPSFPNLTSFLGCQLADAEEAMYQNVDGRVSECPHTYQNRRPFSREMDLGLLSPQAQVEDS
Kind of experiment: Inhibition of FLT-3, radiometric filter-binding assay. The settings on record: 90 μM ATP, pE4Y substrate. The experiment is classed as biochemical. As to the method: Compounds were screened for their ability to inhibit FLT-3 activity using a radiometric filter-binding assay. This assay monitors the ^33P incorporation into a substrate poly(Glu, Tyr) 4:1 (pE4Y). Reactions were carried out in a solution containing 100 mM HEPES (pH 7.5), 10 mM MgCl2, 25 mM NaCl, 1 mM DTT, 0.01% BSA and 2.5% DMSO. Final substrate concentrations in the assay were 90 μM ATP and 0.5 mg/mL pE4Y (both from Sigma Chemicals, St Louis, Mo.). The final concentration of compounds is generally between 0.01 and 5 μM. Typically, a 12-point titration was conducted by preparing serial dilutions from 10 mM DMSO stock of test compound. Reactions were carried out at room temperature.
Two assay solutions were prepared. Solution 1 contains 100 mM HEPES (pH 7.5), 10 mM MgCl2, 25 mM NaCl, 1 mg/ml pE4Y and 180 μM ATP (containing 0.3 μCi of [γ-^33P]ATP for each reaction). Solution 2 contains 100 mM HEPES (pH 7.5), 10 mM MgCl2, 25 mM NaCl, 2 mM DTT, 0.02% BSA and 3 nM FLT-3. The assay was run on a 96 well plate by mixing 50 μL each of Solution1 and 2.5 mL of the test compounds. The reaction was initiated with Solution2. After incubation for 20 minutes at room temperature, the reaction was stopped with 50 μL of 20% TCA containing 0.4 mM of ATP. All of the reaction volume was then transferred to a filter plate and washed with 5% TCA by a Harvester9600 from TOMTEC (Hamden, Conn.). The amount of ^33P incorporation into pE4y was analyzed by a Packard TopCount Microplate Scintillation Counter (Meriden, Conn.). The data was fitted using Prism software to get an IC50 or Ki.

Another experiment has as its target T2, human Src kinase (Homo sapiens, UniProt P12931).
T2 construct: 25 nM of recombinant human Src kinase
Kind of experiment: Src inhibition assay B: spectrophotometric (uv-vis) coupled enzyme assay. Type of experiment: biochemical. Conditions: 100 μM ATP. The method, then: The compounds are evaluated as inhibitors of human Src kinase using either a radioactivity-based assay or spectrophotometric assay.
Src Inhibition Assay B: Spectrophotometric Assay
The ADP produced from ATP by the human recombinant Src kinase-catalyzed phosphorylation of poly Glu-Tyr substrate is quantified using a coupled enzyme assay [Fox et al. Protein Sci. 1998, 7, 2249]. In this assay one molecule of NADH is oxidised to NAD for every molecule of ADP produced in the kinase reaction. The disappearance of NADH is conveniently followed at 340 nm.
The following are the final concentrations of the assay components: 0.025 M HEPES (pH 7.6), 10 mM MgCl2, 2 mM DTT, 0.25 mg/ml poly Glu-Tyr, and 25 nM of recombinant human Src kinase. Final concentrations of the components of the coupled enzyme system are 2.5 mM phosphoenolpyruvate, 200 μM NADH, 30 μg/ml pyruvate kinase and 10 μg/ml lactate dehydrogenase.
In a typical assay, all the reaction components with the exception of ATP are pre-mixed and aliquoted into assay plate wells. Inhibitors dissolved in DMSO are added to the wells to give a final DMSO concentration of 2.5%. The assay plate is incubated at 30° C. for 10 min before initiating the reaction with 100 μM ATP. The absorbance change at 340 nm with time, the rate of the reaction, is monitored on a molecular devices plate reader. The data of rate as a function of the inhibitor concentration is fitted to competitive inhibition kinetics model to get the Ki for the compound.

The mark [1] stands for this setting: given as IC50 or Ki, read-out: IC50 or Ki values (FLT-3).

pKi: −log10 of the molar value. Where two headings read alike, the source gives them in different places.

T2 sequence (P12931 whole entry): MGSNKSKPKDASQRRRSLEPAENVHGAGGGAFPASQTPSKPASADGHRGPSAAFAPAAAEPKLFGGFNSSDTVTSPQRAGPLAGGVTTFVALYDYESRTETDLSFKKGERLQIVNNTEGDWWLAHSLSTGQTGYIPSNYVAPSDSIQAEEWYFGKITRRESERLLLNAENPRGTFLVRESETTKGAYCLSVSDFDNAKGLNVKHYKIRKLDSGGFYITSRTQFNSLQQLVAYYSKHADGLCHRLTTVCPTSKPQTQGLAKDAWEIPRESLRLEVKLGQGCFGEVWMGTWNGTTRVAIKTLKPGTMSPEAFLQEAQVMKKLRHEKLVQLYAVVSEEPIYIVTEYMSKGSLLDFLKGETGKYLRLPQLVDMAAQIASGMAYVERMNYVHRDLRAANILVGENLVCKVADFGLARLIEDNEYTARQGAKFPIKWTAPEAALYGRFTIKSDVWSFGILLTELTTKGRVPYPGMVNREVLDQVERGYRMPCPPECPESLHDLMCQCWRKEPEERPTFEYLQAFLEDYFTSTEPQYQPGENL

For the compound `O=C(Cc1ccccc1)Nc1cc(-n2cnc(Nc3ccccc3)n2)ccn1` [Compound I-96], the pKi was 7.52 to 9.00 on FLT-3 (read-out: Ki values (FLT-3)) and over 6.30 on human Src kinase.
`CC(C)Oc1cccc(Nc2ncn(-c3ccccc3)n2)c1` [Compound I-46]: the pKi at FLT-3 (setting [1]) is over 7.00; on FLT-3 (read-out: Ki values (FLT-3)), 7.52 to 9.00; on human Src kinase, under 6.00.
On to `O=C(CCc1ccccc1)Nc1cc(-n2cnc(Nc3ccccc3)n2)ccn1` [Compound I-95], for which the pKi at FLT-3 (read-out: Ki values (FLT-3)) is 7.52 to 9.00; at human Src kinase, over 6.30.
The corresponding values for `CC1CCCN1c1cc(-n2cnc(Nc3ccccc3)n2)ccn1` (stereo not drawn) [Compound I-56] are 7.52 to 9.00 and 6.00 to 6.30.
As for `COc1cc(Nc2ncn(-c3ccc(C#N)cc3)n2)cc(OC)c1OC` [Compound I-43], the pKi at FLT-3 (setting [1]) is over 7.00; on FLT-3 (read-out: Ki values (FLT-3)), 7.52 to 9.00; on human Src kinase it was over 6.30.
In the case of `CN(Cc1cccnc1)c1cc(-n2cnc(Nc3ccccc3)n2)ccn1` [Compound I-57], the pKi was 7.52 to 9.00 at FLT-3 (read-out: Ki values (FLT-3)) and 6.00 to 6.30 at human Src kinase.
The corresponding values for `O=C(CC1CCCC1)Nc1cc(-n2cnc(Nc3ccccc3)n2)ccn1` [Compound I-94, 2-Cyclopentyl-N-[4-(3-phenylamino-[1,2,4]triazol-1-yl)-pyridin-2-yl]-acetamide] are 7.52 to 9.00 and over 6.30.
For `CC(=O)N1[C@H](C)CN(c2cc(-n3cnc(Nc4ccc(NC(=O)OC(C)C)cc4)n3)ccn2)C[C@@H]1C` [Compound I-89], the results for the pKi at FLT-3 (read-out: Ki values (FLT-3)) and on human Src kinase were 6.70 to 7.52 and 6.00 to 6.30, respectively.
For `CC(=O)N1[C@H](C)CN(c2cc(-n3cnc(Nc4ccc(NC(=O)N(C)C)cc4)n3)ccn2)C[C@@H]1C` [Compound I-77, 3-(4-{1-[2-(4-Acetyl-3,5-dimethyl-piperazin-1-yl)-pyridin-4-yl]-1H-[1,2,4]triazol-3-ylamino}-phenyl)-1,1-dimethyl-urea] the same measures were over 7.22 and 6.00 to 6.30.
On to `CC(=O)N1[C@H](C)CN(c2cc(-n3cnc(Nc4ccc(NC(=O)c5ccco5)cc4)n3)ccn2)C[C@@H]1C` [Compound I-81, Furan-2-carboxylic acid (4-{1-[2-(4-acetyl-3,5-dimethyl-piperazin-1-yl)-pyridin-4-yl]-1H-[1,2,4]triazol-3-ylamino}-phenyl)-amide], for which the figures for the pKi on FLT-3 (read-out: Ki values (FLT-3)) and on human Src kinase were over 7.22 and over 6.30, respectively.
As for `CC(=O)N1[C@H](C)CN(c2cc(-n3cnc(Nc4ccc(NC(=O)OCC(C)(C)C)cc4)n3)ccn2)C[C@@H]1C` [Compound I-91], the figures for the pKi on FLT-3 (read-out: Ki values (FLT-3)) and on human Src kinase were 6.70 to 7.52 and 6.00 to 6.30, respectively.
Take `CCOc1ccc(Nc2ncn(-c3ccccc3)n2)cc1` [Compound I-47]: the pKi was over 7.00 on FLT-3 (setting [1]), 6.70 to 7.52 at FLT-3 (read-out: Ki values (FLT-3)) and under 6.00 at human Src kinase.
For the compound `CCCN(CCO)c1cc(-n2cnc(Nc3ccccc3)n2)ccn1` [Compound I-58], the pKi at FLT-3 (read-out: Ki values (FLT-3)) is 7.52 to 9.00; on human Src kinase, over 6.30.
For `CCOC(=O)c1ccc(Nc2ncn(-c3ccnc(N4CCCN(C(C)=O)CC4)c3)n2)cc1` [Compound I-76] the same measures were 6.70 to 7.52 and under 6.00.
As for `CC(=O)N1[C@H](C)CN(c2cc(-n3cnc(Nc4ccc(N5CCN(S(=O)(=O)c6ccc(C)cc6)CC5)cc4)n3)ccn2)C[C@@H]1C` [Compound I-92], the values for the pKi at FLT-3 (read-out: Ki values (FLT-3)) and on human Src kinase were 6.70 to 7.52 and 6.00 to 6.30, respectively.
For `COCC(=O)N1CCCN(c2cc(-n3cnc(Nc4ccccc4)n3)ccn2)CC1` [Compound I-71] the same measures were 6.70 to 7.52 and under 6.00.
Consider `c1ccc(-n2cnc(Nc3ccnc(N4CCOCC4)c3)n2)cc1` [Compound I-105], for which the pKi at FLT-3 (read-out: Ki values (FLT-3)) is 7.52 to 9.00; at human Src kinase it was over 6.30.
The corresponding values for `CC(=O)N1[C@H](C)CN(c2cc(-n3cnc(Nc4ccc(NC(=O)OCC(C)C)cc4)n3)ccn2)C[C@@H]1C` [Compound I-90] are 6.70 to 7.52 and 6.00 to 6.30.
For `CN(Cc1ccccc1)c1cc(-n2cnc(Nc3ccccc3)n2)ccn1` [Compound I-55] the same measures were 7.52 to 9.00 and 6.00 to 6.30.
Turning to `CCCOC(=O)Nc1ccc(Nc2ncn(-c3ccnc(N4C[C@@H](C)N(C(C)=O)[C@@H](C)C4)c3)n2)cc1` [Compound I-88], the pKi is 6.70 to 7.52 on FLT-3 (read-out: Ki values (FLT-3)) and over 6.30 on human Src kinase.
On to `COc1cc(Nc2ncn(-c3ccccc3)n2)cc(OC)c1OC` [Compound I-42], for which the pKi at FLT-3 (setting [1]) was over 7.00; on FLT-3 (read-out: Ki values (FLT-3)) it was 7.52 to 9.00; at human Src kinase, over 6.30.
As for `c1ccc(-n2cnc(Nc3ccc(N4CCOCC4)cc3)n2)cc1` [Compound I-106], the pKi at FLT-3 (read-out: Ki values (FLT-3)) is 6.70 to 7.52; at human Src kinase, under 6.00.
The corresponding values for `CC(C)(C)CC(=O)Nc1cc(-n2cnc(Nc3ccccc3)n2)ccn1` [Compound I-102] are 7.52 to 9.00 and over 6.30.
`CCC(=O)N1CCCN(c2cc(-n3cnc(Nc4ccccc4)n3)ccn2)CC1` [Compound I-67]: the figures for the pKi on FLT-3 (read-out: Ki values (FLT-3)) and at human Src kinase were 6.70 to 7.52 and under 6.00, respectively.
For `c1ccc(-n2cnc(Nc3ccnc(NCCN4CCOCC4)c3)n2)cc1` [Compound I-107] the same measures were 6.70 to 7.52 and under 6.00.
As to `CC(=O)N1[C@H](C)CN(c2cc(-n3cnc(Nc4ccc(NC(=O)NC(C)(C)C)cc4)n3)ccn2)C[C@@H]1C` [Compound I-101], the pKi on FLT-3 (read-out: Ki values (FLT-3)) was 6.70 to 7.52; on human Src kinase, 6.00 to 6.30.
The corresponding values for `N#CCC(=O)N1CCCN(c2cc(-n3cnc(Nc4ccccc4)n3)ccn2)CC1` [Compound I-72] are over 7.22 and 6.00 to 6.30.
Consider `CN(CCO)c1cc(-n2cnc(Nc3ccccc3)n2)ccn1` [Compound I-51], for which the values for the pKi on FLT-3 (read-out: Ki values (FLT-3)) and at human Src kinase were over 7.22 and under 6.00, respectively.
The corresponding values for `CCN(CC)CCNc1cc(-n2cnc(Nc3ccccc3)n2)ccn1` [Compound I-60] are 6.70 to 7.52 and under 6.00.
Consider `CC(=O)N1[C@H](C)CN(c2cc(-n3cnc(Nc4ccccc4)n3)ccn2)C[C@@H]1C` [Compound I-74], for which the pKi on FLT-3 (read-out: Ki values (FLT-3)) is over 7.22; on human Src kinase, over 6.30.
The corresponding values for `c1ccc(Nc2ncn(-c3ccnc(NC4CCCCC4)c3)n2)cc1` [Compound I-50] are 7.52 to 9.00 and over 6.30.
